Residue numbers refer to the chain shown, from its start.
Legend:
Assay type in all cases: biochemical
[1] = biological target: T1, Topoisomerase I (TOP1) (Homo sapiens, UniProt P11387, N722A); experiment: nicked-DNA accumulation/relaxation assay with purified recombinant TOP1 N722A
T1 construct: 6×His-tagged TOP1 (baculovirus, High Five cells)
T1 sequence (P11387 2-765 N722A): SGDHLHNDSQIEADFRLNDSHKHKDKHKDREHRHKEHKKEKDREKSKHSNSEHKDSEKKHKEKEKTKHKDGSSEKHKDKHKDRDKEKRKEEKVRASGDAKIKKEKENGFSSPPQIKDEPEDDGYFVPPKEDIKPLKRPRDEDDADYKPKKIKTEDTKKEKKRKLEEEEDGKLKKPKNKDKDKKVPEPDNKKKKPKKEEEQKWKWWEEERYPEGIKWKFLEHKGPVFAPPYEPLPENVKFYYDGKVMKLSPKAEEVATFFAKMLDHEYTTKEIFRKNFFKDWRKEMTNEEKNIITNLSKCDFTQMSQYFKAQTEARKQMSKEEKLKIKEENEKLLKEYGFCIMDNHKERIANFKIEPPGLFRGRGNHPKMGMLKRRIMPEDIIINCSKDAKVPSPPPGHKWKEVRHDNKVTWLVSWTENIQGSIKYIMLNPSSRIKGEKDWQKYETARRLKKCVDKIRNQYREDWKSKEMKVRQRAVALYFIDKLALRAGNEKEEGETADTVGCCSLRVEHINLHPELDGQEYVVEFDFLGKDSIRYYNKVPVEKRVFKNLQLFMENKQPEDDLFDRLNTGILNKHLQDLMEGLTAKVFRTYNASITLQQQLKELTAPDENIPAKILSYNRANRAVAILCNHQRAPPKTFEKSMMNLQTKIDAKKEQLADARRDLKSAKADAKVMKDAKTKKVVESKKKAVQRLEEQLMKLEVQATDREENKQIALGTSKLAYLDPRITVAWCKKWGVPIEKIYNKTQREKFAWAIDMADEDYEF

[2] = biological target: T2, Topoisomerase I (TOP1) (Homo sapiens, UniProt P11387); experiment: nicked-DNA accumulation/relaxation assay with purified recombinant wild-type TOP1
T2 construct: 6×His-tagged TOP1 (baculovirus, High Five cells)
T2 sequence (P11387 2-765): T1 sequence (P11387 2-765 N722A) with A721N

[3] = biological target: T3, Topoisomerase I (TOP1) (Homo sapiens, UniProt P11387, N722S); experiment: nicked-DNA accumulation assay with purified recombinant TOP1 N722S, […] Genz
T3 construct: 6×His-tagged TOP1 (baculovirus, High Five cells)
T3 sequence (P11387 2-765 N722S): T1 sequence (P11387 2-765 N722A) with A721S

CNCCn1c(=O)c2cc(OC)c(OC)cc2c2cnc3cc4c(cc3c21)OCO4 [Genz, 8,9-dimethoxy-5-(2-N-methylaminoethyl)-2,3-methylenedioxy-5H-dibenzo[c,h][1,6]naphthyridin-6-one]
nicked-DNA accumulation/relaxation assay with purified recombinant TOP1 N722A [1]: accumulation of nicked DNA on N722A and N722S proteins after treatment with Genz was higher than that on the wild type | nicked-DNA accumulation/relaxation assay with purified recombinant wild-type TOP [2]: slight accumulation of nicked DNA was also observed for the wild type | nicked-DNA accumulation assay with purified recombinant TOP1 N722S, 10 μM Genz [3]: The enhanced accumulation of nicked DNA appeared only in the N722S mutant after treatment with Genz
